{"source": "patent US4395558A", "about": "“9-Epi-mitomycin B and D compounds” (Kyowa Hakko Kogyo Kabushiki Kaisha, priority 1979, dated 1983)", "key": {"Bacillus subtilis #10707": {"test_system": "Bacillus subtilis #10707", "test": "Minimum growth inhibitory concentration by agar dilution method", "type": "cell-based", "settings": "for MIC: Bacillus subtilis, pH 7, read-out: Minimum growth inhibitory concentration; for Minimum growth inhibitory concentration: Bacillus subtilis #10707, agar dilution method at pH 7.0", "source_text": "(§1) Minimum growth inhibitory concentration (μg/ml)\n(§2) by agar dilution method at pH 7.0"}, "[1]": {"test_system": "Klebsiella pneumoniae ATCC 10031", "test": "Minimum growth inhibitory concentration by agar dilution method", "type": "cell-based", "settings": "for Minimum growth inhibitory concentration: Klebsiella pneumoniae ATCC 10031, agar dilution method at pH 7.0", "source_text": "as §1, §2"}, "[2]": {"test_system": "Proteus vulgaris ATCC 6897", "test": "Minimum growth inhibitory concentration by agar dilution method", "type": "cell-based", "settings": "for MIC: Proteus vulgaris; for Minimum growth inhibitory concentration: Proteus vulgaris ATCC 6897", "source_text": "as §1, §2"}, "[3]": {"test_system": "Pseudomonas cepacia ATCC 25608", "test": "Minimum growth inhibitory concentration by agar dilution method", "type": "cell-based", "settings": "for MIC: Burkholderia cepacia, ATCC25608, pH 7, read-out: Minimum growth inhibitory concentration; for Minimum growth inhibitory concentration: Pseudomonas cepacia ATCC 25608, agar dilution method at pH 7.0", "source_text": "as §1, §2"}, "[4]": {"test_system": "Serratia marcescens ATCC 4003", "test": "Minimum growth inhibitory concentration by agar dilution method", "type": "cell-based", "settings": "for MIC: Serratia marcescens, ATCC4003, pH 7, read-out: Minimum growth inhibitory concentration; for Minimum growth inhibitory concentration: Serratia marcescens ATCC 4003, agar dilution method at pH 7.0", "source_text": "as §1, §2"}, "[5]": {"test_system": "Shigella sonnei ATCC 9290", "test": "Minimum growth inhibitory concentration by agar dilution method", "type": "cell-based", "settings": "for MIC: Shigella sonnei; for Minimum growth inhibitory concentration: Shigella sonnei ATCC 9290", "source_text": "as §1, §2"}, "[6]": {"test_system": "Staphylococcus aureus ATCC 6538P", "test": "Minimum growth inhibitory concentration by agar dilution method", "type": "cell-based", "settings": "for MIC: Staphylococcus aureus, ATCC6538P; for Minimum growth inhibitory concentration: Staphylococcus aureus ATCC 6538P", "source_text": "as §1, §2"}, "[7]": {"test_system": "Salmonella typhosa ATCC 9992", "test": "Minimum growth inhibitory concentration by agar dilution method", "type": "cell-based", "settings": "for Minimum growth inhibitory concentration: Salmonella typhosa ATCC 9992, agar dilution method at pH 7.0"}, "mouse": {"test_system": "mouse", "test": "LD50 (mouse, ip.)", "type": "in vivo", "source_text": "(§3) | LD50 (mouse, ip.) (mg/kg)"}, "various microorganisms": {"test_system": "various microorganisms", "test": "Growth inhibition of various microorganisms / antibacterial activity (in words)", "type": "cell-based", "settings": "statement in words", "source_text": "as §1, §2"}, "Escherichia coli ATCC 26": {"test_system": "Escherichia coli ATCC 26", "test": "Minimum growth inhibitory concentration by agar dilution method", "type": "cell-based", "settings": "for Minimum growth inhibitory concentration: Escherichia coli ATCC 26, agar dilution method at pH 7.0; for MIC: Escherichia coli, ATCC26, pH 7, read-out: Minimum growth inhibitory concentration", "source_text": "as §1, §2"}, "LD50 (mouse, ip.)": {"test": "LD50 (mouse, ip.)", "type": "in vivo", "settings": "in vivo, ip", "source_text": "as §3"}, "[8]": {"settings": "agar dilution method at pH 7.0, listed as M-B"}, "[9]": {"settings": "agar dilution method at pH 7.0, listed as M-D"}, "[10]": {"settings": "agar dilution method at pH 7.0, listed as Vb-1"}}, "note": "Read-outs that look alike come from different tables or passages of the source.", "data": [{"smiles": "CC1=C(N)C(=O)C2=C(C1=O)N1CC3C(N3C)C1(O)C2COC(N)=O", "note": "(stereo not drawn) [9-epi-mitomycin D]", "values": [{"measurement": "MIC", "setting": "Bacillus subtilis #10707", "value": 6.3, "unit": "µg/mL"}, {"measurement": "Minimum growth inhibitory concentration", "setting": "[1]; listed as Va-1", "value": 3.1, "unit": "µg/mL"}, {"measurement": "MIC", "setting": "[2]; ATCC6897, pH 7, read-out: Minimum growth inhibitory concentration, Proteus vulgaris ATCC 6897, agar dilution method at pH 7.0", "value": 12.5, "unit": "µg/mL"}, {"measurement": "MIC", "setting": "[3]", "value": "> 50", "unit": "µg/mL"}, {"measurement": "MIC", "setting": "[4]", "value": "> 50", "unit": "µg/mL"}, {"measurement": "MIC", "setting": "[5]; ATCC9290, pH 7, read-out: Minimum growth inhibitory concentration, Shigella sonnei ATCC 9290, agar dilution method at pH 7.0", "value": "> 50", "unit": "µg/mL"}, {"measurement": "MIC", "setting": "[6]; pH 7, read-out: Minimum growth inhibitory concentration, Staphylococcus aureus ATCC 6538P, agar dilution method at pH 7.0", "value": 25, "unit": "µg/mL"}, {"measurement": "MIC", "setting": "[7]; Salmonella enterica, pH 7, read-out: Minimum growth inhibitory concentration", "value": "> 50", "unit": "µg/mL"}, {"measurement": "LD50", "setting": "mouse", "value": 150, "unit": "mg/kg"}, {"measurement": "inhibiting activity against the growth of various microorganisms / antibacterial activity", "setting": "various microorganisms", "value": "high inhibiting activity"}]}, {"smiles": "COC1=C(C)C(=O)C2=C(C1=O)C(COC(N)=O)C1(O)C3C(CN21)N3C", "note": "(centres unmarked) [mitomycin B, Mitomycin B]", "values": [{"measurement": "Minimum growth inhibitory concentration", "setting": "Bacillus subtilis #10707; listed as M-B", "value": 0.020, "unit": "µg/mL"}, {"measurement": "Minimum growth inhibitory concentration", "setting": "Escherichia coli ATCC 26; listed as M-B", "value": "> 10", "unit": "µg/mL"}, {"measurement": "Minimum growth inhibitory concentration", "setting": "[1]; listed as M-B", "value": 0.16, "unit": "µg/mL"}, {"measurement": "Minimum growth inhibitory concentration", "setting": "[2]; [8]", "value": 0.078, "unit": "µg/mL"}, {"measurement": "Minimum growth inhibitory concentration", "setting": "[3]; listed as M-B", "value": 10, "unit": "µg/mL"}, {"measurement": "Minimum growth inhibitory concentration", "setting": "[4]; listed as M-B", "value": 2.5, "unit": "µg/mL"}, {"measurement": "Minimum growth inhibitory concentration", "setting": "[5]; [8]", "value": 5.0, "unit": "µg/mL"}, {"measurement": "Minimum growth inhibitory concentration", "setting": "[6]; [8]", "value": 0.039, "unit": "µg/mL"}, {"measurement": "Minimum growth inhibitory concentration", "setting": "[7]; listed as M-B", "value": 10.0, "unit": "µg/mL"}, {"measurement": "LD50", "setting": "mouse", "value": 4.5, "unit": "mg/kg"}]}, {"smiles": "CC1=C(N)C(=O)C2=C(C1=O)N1CC3C(N3C)C1(O)C2COC(N)=O", "note": "(centres unmarked) [mitomycin D, 7-amino-7-demethoxy mitomycin B]", "values": [{"measurement": "Minimum growth inhibitory concentration", "setting": "Bacillus subtilis #10707", "value": 6.3, "unit": "µg/mL"}, {"measurement": "MIC", "setting": "Escherichia coli ATCC 26", "value": "> 50", "unit": "µg/mL"}, {"measurement": "Minimum growth inhibitory concentration", "setting": "[1]; listed as M-D", "value": 6.3, "unit": "µg/mL"}, {"measurement": "Minimum growth inhibitory concentration", "setting": "[2]; [9]", "value": 25, "unit": "µg/mL"}, {"measurement": "Minimum growth inhibitory concentration", "setting": "[5]; [9]", "value": 50, "unit": "µg/mL"}, {"measurement": "Minimum growth inhibitory concentration", "setting": "[6]; [9]", "value": 50, "unit": "µg/mL"}, {"measurement": "Minimum growth inhibitory concentration", "setting": "[7]", "value": "> 50", "unit": "µg/mL"}, {"measurement": "LD50", "setting": "mouse", "value": 430, "unit": "mg/kg"}]}, {"smiles": "COC1=C(C)C(=O)C2=C(C1=O)C(COC(N)=O)C1(O)C3C(CN21)N3C", "note": "(stereo not drawn) [9-epi-mitomycin B]", "values": [{"measurement": "Minimum growth inhibitory concentration", "setting": "Bacillus subtilis #10707; listed as Vb-1", "value": "< 0.024", "unit": "µg/mL"}, {"measurement": "Minimum growth inhibitory concentration", "setting": "Escherichia coli ATCC 26; listed as Vb-1", "value": 12.5, "unit": "µg/mL"}, {"measurement": "Minimum growth inhibitory concentration", "setting": "[1]; listed as Vb-1", "value": "< 0.024", "unit": "µg/mL"}, {"measurement": "Minimum growth inhibitory concentration", "setting": "[2]; [10]", "value": 0.049, "unit": "µg/mL"}, {"measurement": "Minimum growth inhibitory concentration", "setting": "[3]; listed as Vb-1", "value": 25, "unit": "µg/mL"}, {"measurement": "Minimum growth inhibitory concentration", "setting": "[4]; listed as Vb-1", "value": 3.1, "unit": "µg/mL"}, {"measurement": "Minimum growth inhibitory concentration", "setting": "[5]; [10]", "value": 6.3, "unit": "µg/mL"}, {"measurement": "Minimum growth inhibitory concentration", "setting": "[6]; [10]", "value": 0.049, "unit": "µg/mL"}, {"measurement": "Minimum growth inhibitory concentration", "setting": "[7]; listed as Vb-1", "value": 6.3, "unit": "µg/mL"}, {"measurement": "LD50", "setting": "LD50 (mouse, ip.)", "value": 7.5, "unit": "mg/kg"}, {"measurement": "inhibiting activity against the growth of various microorganisms / antibacterial activity", "setting": "various microorganisms", "value": "high inhibiting activity"}]}, {"smiles": "CO[C@@]12[C@H](COC(N)=O)C3=C(C(=O)C(C)=C(N)C3=O)N1C[C@@H]1N[C@@H]12", "note": "[mitomycin C, Mitomycin C]", "values": [{"measurement": "MIC", "setting": "Bacillus subtilis #10707", "value": 0.02, "unit": "µg/mL"}, {"measurement": "MIC", "setting": "Escherichia coli ATCC 26", "value": 10, "unit": "µg/mL"}, {"measurement": "MIC", "setting": "[1]; Klebsiella pneumoniae, ATCC10031, pH 7, read-out: Minimum growth inhibitory concentration", "value": 9.8, "unit": "ng/mL"}, {"measurement": "MIC", "setting": "[2]; ATCC6897, pH 7, read-out: Minimum growth inhibitory concentration", "value": 0.078, "unit": "µg/mL"}, {"measurement": "MIC", "setting": "[3]", "value": 10, "unit": "µg/mL"}, {"measurement": "MIC", "setting": "[4]", "value": 5, "unit": "µg/mL"}, {"measurement": "MIC", "setting": "[5]; ATCC9290, pH 7, read-out: Minimum growth inhibitory concentration", "value": 5, "unit": "µg/mL"}, {"measurement": "MIC", "setting": "[6]; pH 7, read-out: Minimum growth inhibitory concentration", "value": 0.156, "unit": "µg/mL"}]}]}
